# Measurements as given in patent US12128035B2, “Activating pyruvate kinase R” (Novo Nordisk Health Care AG, priority 2021, dated 2024).
# Where “and” joins values, the source holds several entries; their conditions need not be identical. Equal values may be shown once.
# Columns and labels:
# [1] = target: T1, wt-PKR in mature human erythrocytes (Homo sapiens, UniProt P30613); experiment: Cell assay: PKR activation in human RBCs (Biovision Pyruvate Kinase Assay); type: cell-based; details: 3 hr treatment
# T1 construct: host or cells: purified human RBCs from donors
# Experimental: The activation of wt-PKR by Compound 1 in mature human erythrocytes ex vivo was evaluated in purified RBCs purchased from Research Blood Components. Cells treated with Compound 1 for 3 hr in glucose-containing media were washed, lysed, and assayed using a Biovision Pyruvate Kinase Assay (K709-100). The assay was repeated multiple times to account for donor-to-donor variability and the relatively narrow dynamic range.
# [2] = Phase 1 food effect cohort in healthy subjects; type: in vivo, human; details: 400 mg with and without food
# Experimental: Four healthy SAD cohorts were evaluated at doses of 200, 400, 700, and 1000 mg, and four healthy MAD cohorts received 200 to 600 mg total daily doses for 14 days at QD or BID dosing (100 mg BID, 200 mg BID, 300 mg BID, and 400 mg QD). In the food effect (FE) cohort, 10 healthy subjects received 400 mg of Compound 1 QD with and without food. […] FIG. 22 illustrates plasma Compound 1 pharmacokinetics in healthy volunteers following a single dose. […] No significant changes in exposure were observed after 14 days of dosing. Compound 1 exposure under fed/fasted conditions was similar.
# [3] = tested on: ATP blood levels; experiment: Phase 1: blood ATP in SCD patients; type: in vivo, human
# Experimental: In this study, SAD/MAD cohorts are randomized (3 to 1) to receive Compound 1 or placebo (P). Compound 1 was evaluated first in 4 healthy SAD cohorts and 4 healthy MAD (14-day dosing period) cohorts. Based on the safety, and PK/PD profile from HS, Compound 1 is then evaluated in 1 SCD SAD cohort and 2 SCD MAD cohorts. Specifically, based on the safety and pharmacokinetic/pharmacodynamics (PK/PD) profile in healthy volunteer studies, Compound 1 is evaluated in patients (pts) with SCD, first in a single dose (SD or SAD) cohort and then in multiple-dose (MD or MAD) cohorts (14-day and 12-week). Safety assessments include AEs, vital signs, ECGs and laboratory parameters. PK/PD blood sampling was performed on Day 1 (SAD/MAD) and Day 14 (MAD) and up to 72 h after the last dose and at the end-of-study visit. PD parameters included 2,3-DPG, ATP, and p50 in all cohorts with additional PD studies (including oxygen scan) performed only in the SCD cohorts. PD parameters included 2,3-DPG, ATP, p50, RBC deformability with controlled deoxygenation and reoxygenation (Lorrca® oxygen scan) and varying osmolality (Lorrca® osmoscan)). To maintain study blind, pt identifiers were removed when needed.
# The onset of the increase in ATP blood levels after a single 700 mg dose of Compound 1 was faster in SCD patients than in healthy volunteers, while the onset of the decrease in 2,3-DPG blood levels was slower.
# The following procedures are employed for the analysis of ATP and 2,3-DPG in human whole blood K2EDTA using a protein precipitation extraction procedure and analysis by LC-MS/MS.
# The following procedures are used for sample extraction prior to analysis via LC-MS/MS. 15.0 μL of the calibration standards, quality controls, matrix blanks, and samples are aliquoted into a 96-well plate. 50.0 μL of the internal standard spiking solution is added to all samples on the plate, with the exception of the matrix blank samples; 50.0 μL of water is added to the matrix blank samples. Subsequently, 150 μL of water is added to all samples on the plate. The plate is then covered and agitated by vortex at high speed for ten minutes, after which 750 μL of methanol is added to all samples on the plate. The plate is covered and agitated by vortex for approximately 1 minute. The plate is then centrifuged at approximately 3500 RPM at approximately 4° C. for five minutes. After centrifugation, a liquid handler is used to transfer 50 μL of each sample to a new 96-well plate, and 200 μL of acetonitrile is added to all samples on the plate. The newly prepared plate is covered and agitated by vortex for approximately 1 minute. The plate is then centrifuged at approximately 3500 RPM at approximately 4° C. for 2 minutes.
# [4] = tested on: H295R adreno-cortical carcinoma cell line; experiment: Steroid modulation screen in vitro; type: cell-based; details: tested at 200 to 0.0002 μM; only at top concentration
# Experimental: To assess potential effects on steroidogenesis, Compound 1 was screened for steroid modulation in vitro using the H295R adreno-cortical carcinoma cell line (at 200 to 0.0002 μM) and in an assay to monitor cell viability (MTT Kit). Compound 1 indicated steroid modulation potential (% over vehicle) only at 200 μM, the top concentration tested, with 100% cellular viability at concentrations ≤20 μM (90% viability at 200 μM).
# T1 sequence (P30613 whole entry): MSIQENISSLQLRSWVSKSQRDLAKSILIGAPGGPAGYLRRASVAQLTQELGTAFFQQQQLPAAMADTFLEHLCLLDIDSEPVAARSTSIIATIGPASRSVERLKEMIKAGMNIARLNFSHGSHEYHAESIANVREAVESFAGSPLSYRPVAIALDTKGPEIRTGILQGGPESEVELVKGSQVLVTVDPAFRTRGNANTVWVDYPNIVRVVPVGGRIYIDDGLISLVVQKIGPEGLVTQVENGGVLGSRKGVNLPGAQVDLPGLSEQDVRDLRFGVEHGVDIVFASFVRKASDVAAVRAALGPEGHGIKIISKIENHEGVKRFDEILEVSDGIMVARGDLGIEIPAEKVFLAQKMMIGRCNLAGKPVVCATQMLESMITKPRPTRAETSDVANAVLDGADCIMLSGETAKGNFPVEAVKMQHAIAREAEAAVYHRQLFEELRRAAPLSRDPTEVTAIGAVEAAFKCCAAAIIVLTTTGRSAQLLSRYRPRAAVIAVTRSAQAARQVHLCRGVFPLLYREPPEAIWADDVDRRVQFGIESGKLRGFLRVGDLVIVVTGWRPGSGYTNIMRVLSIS
smiles,measurement,setting,value
"O=C([C@H](CO)c1ccccc1)N1CC2=C(C1)CN(S(=O)(=O)c1cnc3c(c1)OCCO3)C2 (single isomer, unassigned) [Compound 1]","Max − Min (%), Mean",[1]; mean of replicates,< 100%
same,Max − Min (%),[1]; single replicates,<125% and <150% and <100% and <50%
same,exposure under fed/fasted conditions,[2],similar
same,mean percentage change in ATP blood levels,"[3]; SCD 300 mg QD, Day 1, 0 h after first daily dose",0%
same,mean percentage change in ATP blood levels,"[3]; SCD 300 mg QD, Day 1, 24 h after first daily dose",14%
same,mean percentage change in ATP blood levels,"[3]; SCD 300 mg QD, Day 14, 0 h after first daily dose",47%
same,mean percentage change in ATP blood levels,"[3]; SCD 300 mg QD, Day 14, 6 h after first daily dose",44%
same,mean percentage change in ATP blood levels,"[3]; SCD 300 mg QD, Day 14, 24 h after first daily dose",45%
same,mean percentage change in ATP blood levels,"[3]; SCD 300 mg QD, Day 14, 48 h after first daily dose",35%
same,mean percentage change in ATP blood levels,"[3]; SCD single 700 mg, 0 h after dose",0%
same,mean percentage change in ATP blood levels,"[3]; SCD single 700 mg, 6 h after dose",14%
same,mean percentage change in ATP blood levels,"[3]; SCD single 700 mg, 24 h after dose",30%
same,mean percentage change in ATP blood levels,"[3]; SCD single 700 mg, 48 h after dose",30%
same,mean percentage change in ATP blood levels,"[3]; SCD single 700 mg, 72 h after dose",32%
same,lag of maximum increase in blood ATP behind maximum plasma concentration,"[3]; SCD single 700 mg, FIG. 54A",at least 24 hours
same,increase in ATP blood concentrations,"[3]; SCD, 24 hours after single 700-mg dose, FIG. 46A",30%
same,concentration indicating steroid modulation potential (% over vehicle),[4],200 µM
